Assay results as given in patent US20130096067A1, “DROSOPHILA TUMOR STEM CELL MODEL AND USES THEREOF” (priority 2011, published 2013).
Where a name gives a salt, the structure may show the parent alone. Read-outs that look alike come from different tables or passages of the source. Peptide text beside a SMILES is read from it. * marks the point of attachment. Cbz = O=C(OCc1ccccc1)*

System: Raf-1^gof intestinal tumors
Conditions: for Log2 (fold) of luciferase activity relative to DMSO controls / Fold (luciferase activity relative to DMSO controls): ICCB compounds fed in vials to flies with one-day old Raf-1^gof tumors
[1] = assessed three days later, averaged from multiple wells
[2] = screen of 480 ICCB compounds in vials, compounds fed to flies with one-day old Raf-1^gof tumors, assessed three days later, esg-Gal4 luciferase
[3] = screen of 480 ICCB compounds in vials, compounds fed to flies with one-day old Raf-1^gof tumors, assessed three days later, esg-Gal4 luciferase, averaged from multiple wells
For Fold (luciferase activity relative to DMSO controls) in this document: test concentration or dose not given here.
For Fold (luciferase activity, fold difference relative to DMSO controls) in this document: test concentration or dose not given here.
For Log2 (fold) (luciferase activity, log2 of the fold difference relative to DMSO controls) in this document: test concentration or dose not given here.
For Log2 (fold) of luciferase activity relative to DMSO controls in this document: test concentration or dose not given here.

CNC(=O)[C@H]1O[C@@H](n2cnc3c(NCc4cccc(I)c4)ncnc32)[C@H](O)[C@@H]1O [IB-MECA]
Log2 (fold) of luciferase activity relative to DMSO controls (assessed three days later): −0.083 | Fold (luciferase activity relative to DMSO controls) [1]: 0.944 fold

CC(C)Cn1c(=O)n(C)c(=O)c2[nH]cnc21 [IBMX]
Log2 (fold) (luciferase activity, log2 of the fold difference relative to DMSO controls) [2]: −0.297 | Fold (luciferase activity, fold difference relative to DMSO controls) [3]: 0.814

O=C1Nc2ccccc2/C1=C1/Nc2ccccc2/C1=N\O [Indirubin-3′-monoxime]
Log2 (fold) of luciferase activity relative to DMSO controls (assessed three days later): −0.025 | Fold (luciferase activity relative to DMSO controls) [1]: 0.983 fold

O=C1Nc2ccccc2/C1=C1/Nc2ccccc2C1=O [Indirubin]
Log2 (fold) of luciferase activity relative to DMSO controls (assessed three days later): −0.103 | Fold (luciferase activity relative to DMSO controls) [1]: 0.931 fold

COC(=O)[C@@]1(O)C[C@H]2O[C@]1(C)n1c3ccccc3c3c4c(c5c6ccccc6n2c5c31)C(=O)NC4 [K252A]
Log2 (fold) of luciferase activity relative to DMSO controls (assessed three days later): 0.364 | Fold (luciferase activity relative to DMSO controls) [1]: 1.287 fold

CCCCCCOC(=O)[C@]1(O)C[C@@H]2O[C@@]1(C)n1c3ccccc3c3c4c(c5c6ccccc6n2c5c31)C(=O)NC4 [KT-5720]
Log2 (fold) (luciferase activity, log2 of the fold difference relative to DMSO controls) [2]: −0.246 | Fold (luciferase activity, fold difference relative to DMSO controls) [3]: 0.843

COC(=O)[C@@H](N)CCCNC(=N)N[N+](=O)[O-] [L-NAME]
Log2 (fold) (luciferase activity, log2 of the fold difference relative to DMSO controls) [2]: −0.446 | Fold (luciferase activity, fold difference relative to DMSO controls) [3]: 0.734

CCCCCCCCCCCCCCCC(=O)N[C@@H](COP(=O)(O)O)C(=O)O [L-NASPA]
Log2 (fold) of luciferase activity relative to DMSO controls (assessed three days later): 0.003 | Fold (luciferase activity relative to DMSO controls) [1]: 1.002 fold

COc1ccc([C@H]2Sc3ccccc3N(CCN(C)C)C(=O)[C@H]2OC(C)=O)cc1 [L-cis-DILTIAZEM]
Log2 (fold) of luciferase activity relative to DMSO controls (assessed three days later): 0.137 | Fold (luciferase activity relative to DMSO controls) [1]: 1.100 fold

CCCCC/C=C\CC1OC1CCCCCCCC(=O)O (centres unmarked) [LEUKOTOXIN A (9,10-EODE)]
Log2 (fold) (luciferase activity, log2 of the fold difference relative to DMSO controls) [2]: −0.216 | Fold (luciferase activity, fold difference relative to DMSO controls) [3]: 0.861

CCCCC/C=C\C[C@@H](O)/C=C/C=C/C=C\[C@@H](O)CCCC(=O)O [LEUKOTRIENE B4]
Log2 (fold) of luciferase activity relative to DMSO controls (assessed three days later): −0.037 | Fold (luciferase activity relative to DMSO controls) [1]: 0.975 fold

CCCCC/C=C\C\C=C/C=C/C=C/[C@@H](SC[C@H](NC(=O)CC[C@H](N)C(=O)O)C(=O)NCC(=O)O)[C@@H](O)CCCC(=O)O [LEUKOTRIENE C4]
Log2 (fold) of luciferase activity relative to DMSO controls (assessed three days later): 0.114 | Fold (luciferase activity relative to DMSO controls) [1]: 1.082 fold

CCCCC/C=C\C\C=C/C=C/C=C/[C@@H](SC[C@H](N)C(=O)NCC(=O)O)[C@@H](O)CCCC(=O)O [LEUKOTRIENE D4]
Log2 (fold) of luciferase activity relative to DMSO controls (assessed three days later): 0.234 | Fold (luciferase activity relative to DMSO controls) [1]: 1.176 fold

CCCCC/C=C\C\C=C/C=C/C=C/[C@@H](SC[C@H](N)C(=O)O)[C@@H](O)CCCC(=O)O [LEUKOTRIENE E4]
Log2 (fold) (luciferase activity, log2 of the fold difference relative to DMSO controls) [2]: −0.439 | Fold (luciferase activity, fold difference relative to DMSO controls) [3]: 0.737

C/C(O)=C(\C#N)C(=O)Nc1cc(Br)ccc1Br [LFM-A13]
Log2 (fold) (luciferase activity, log2 of the fold difference relative to DMSO controls) [2]: −0.417 | Fold (luciferase activity, fold difference relative to DMSO controls) [3]: 0.749

CCN(CC)CC(=O)Nc1c(C)cccc1C [LIDOCAINE]
Log2 (fold) of luciferase activity relative to DMSO controls (assessed three days later): 0.049 | Fold (luciferase activity relative to DMSO controls) [1]: 1.035 fold

CCCCC/C=C\C/C=C\CCCCCCCC(N)=O [LINOLEAMIDE]
Log2 (fold) of luciferase activity relative to DMSO controls (assessed three days later): −0.027 | Fold (luciferase activity relative to DMSO controls) [1]: 0.981 fold

CCCCC/C=C\C/C=C\CCCCCCCC(=O)O [LINOLEIC ACID]
Log2 (fold) of luciferase activity relative to DMSO controls (assessed three days later): 0.024 | Fold (luciferase activity relative to DMSO controls) [1]: 1.017 fold

CC/C=C\C/C=C\C/C=C\CCCCCCCC(=O)O [LINOLENIC ACID (18:3 n-3)]
Log2 (fold) of luciferase activity relative to DMSO controls (assessed three days later): 0.096 | Fold (luciferase activity relative to DMSO controls) [1]: 1.069 fold

CCCCC[C@H](O)/C=C/C=C\C=C\C=C\[C@@H](O)[C@@H](O)CCCC(=O)O [LIPOXIN A4]
Log2 (fold) of luciferase activity relative to DMSO controls (assessed three days later): 0.046 | Fold (luciferase activity relative to DMSO controls) [1]: 1.033 fold

CN(C)C(=O)C(CCN1CCC(O)(c2ccc(Cl)cc2)CC1)(c1ccccc1)c1ccccc1 [LOPERAMIDE]
Fold (luciferase activity, fold difference relative to DMSO controls) (in vivo): 0.786 | Log2 (fold) (luciferase activity, log2 of the fold difference relative to DMSO controls) (in vivo): −0.347

CCCCCCCCCCCCCCCCOC[C@@H](O)COP(=O)([O-])OCC[N+](C)(C)C [LYSO-PAF C16]
Log2 (fold) of luciferase activity relative to DMSO controls (assessed three days later): −0.087 | Fold (luciferase activity relative to DMSO controls) [1]: 0.941 fold

C/C1=C/C(=O)O[C@@H]2C[C@@H](CC[C@H](C)/C=C\CC1)O[C@@](O)([C@@H]1CSC(=O)N1)C2 [Latrunculin B, reference compound]
Fold (Table 3 summary of hits, Screen ICCB, luciferase relative to DMSO, fed three consecutive days in vials): 0.478 fold | Log2 (fold) (luciferase activity, log2 of the fold difference relative to DMSO controls) [2]: −1.064 | Fold (luciferase activity, fold difference relative to DMSO controls) [3]: 0.478

O=C(O)c1cc(N(Cc2ccccc2O)Cc2cc(O)ccc2O)ccc1O [Lavendustin A]
Log2 (fold) (luciferase activity, log2 of the fold difference relative to DMSO controls) [2]: −0.297 | Fold (luciferase activity, fold difference relative to DMSO controls) [3]: 0.814

CC(=O)N[C@@H](CC(C)C)C(=O)N[C@@H](CC(C)C)C(=O)N[C@H](C=O)CCCNC(=N)N [Leupeptin]
Log2 (fold) of luciferase activity relative to DMSO controls (assessed three days later): −0.038 | Fold (luciferase activity relative to DMSO controls) [1]: 0.974 fold

CCCCCCCCCCCCCC(=O)N[C@H](C)[C@@H](O)c1ccccc1 [MAPP, D-erythro]
Log2 (fold) (luciferase activity, log2 of the fold difference relative to DMSO controls) [2]: −0.266 | Fold (luciferase activity, fold difference relative to DMSO controls) [3]: 0.832

CCCCCCCCCCCCCC(=O)N[C@@H](C)[C@H](O)c1ccccc1 [MAPP, L-erythro]
Log2 (fold) of luciferase activity relative to DMSO controls (assessed three days later): 0.104 | Fold (luciferase activity relative to DMSO controls) [1]: 1.075 fold

Clc1ccc2ncnc(NCc3ccc4c(c3)OCO4)c2c1 [MBCQ]
Log2 (fold) of luciferase activity relative to DMSO controls (assessed three days later): 0.195 | Fold (luciferase activity relative to DMSO controls) [1]: 1.145 fold

CC1=NN(c2ccccc2)C(=O)C1 [MCI-186]
Log2 (fold) of luciferase activity relative to DMSO controls (assessed three days later): −0.200 | Fold (luciferase activity relative to DMSO controls) [1]: 0.871 fold

CCCCCCCC/C=C\C/C=C\C/C=C\CCCC(=O)O [MEAD ACID (20:3 n-9)]
Log2 (fold) (luciferase activity, log2 of the fold difference relative to DMSO controls) [2]: −0.279 | Fold (luciferase activity, fold difference relative to DMSO controls) [3]: 0.824

CCCCCCCC/C=C\C/C=C\C/C=C\CCCC(=O)NCCO [MEAD ETHANOLAMIDE]
Log2 (fold) (luciferase activity, log2 of the fold difference relative to DMSO controls) [2]: −0.322 | Fold (luciferase activity, fold difference relative to DMSO controls) [3]: 0.800

COC(C)(C)CCCC(C)C/C=C/C(C)=C/C(=O)O (centres unmarked) [METHOPRENE ACID]
Log2 (fold) (luciferase activity, log2 of the fold difference relative to DMSO controls) [2]: −0.328 | Fold (luciferase activity, fold difference relative to DMSO controls) [3]: 0.796

CC(C)C[C@@H](C=O)NC(=O)[C@H](CC(C)C)NC(=O)[C@H](CC(C)C)NC(=O)OCc1ccccc1 [MG-132] (Cbz-Leu-Leu-Leu-aldehyde)
Log2 (fold) of luciferase activity relative to DMSO controls (assessed three days later): 0.097 | Fold (luciferase activity relative to DMSO controls) [1]: 1.070 fold

Nc1cc(N2CCCCC2)nc(N)[n+]1OS(=O)(=O)[O-] [MINOXIDIL SULFATE]
Log2 (fold) (luciferase activity, log2 of the fold difference relative to DMSO controls) [2]: −0.417 | Fold (luciferase activity, fold difference relative to DMSO controls) [3]: 0.749

Nc1cc(N2CCCCC2)nc(N)[n+]1[O-] [MINOXIDIL]
Log2 (fold) (luciferase activity, log2 of the fold difference relative to DMSO controls) [2]: −0.292 | Fold (luciferase activity, fold difference relative to DMSO controls) [3]: 0.817

O=S(=O)(c1cccc2c(I)cccc12)N1CCCNCC1 [ML7]
Log2 (fold) of luciferase activity relative to DMSO controls (assessed three days later): 0.192 | Fold (luciferase activity relative to DMSO controls) [1]: 1.143 fold

O=S(=O)(c1cccc2c(Cl)cccc12)N1CCCNCC1 [ML9]
Log2 (fold) (luciferase activity, log2 of the fold difference relative to DMSO controls) [2]: −0.458 | Fold (luciferase activity, fold difference relative to DMSO controls) [3]: 0.728

Clc1cccc(Nc2nnc(-c3ccccc3)c3ccccc23)c1 [MY-5445]
Log2 (fold) of luciferase activity relative to DMSO controls (assessed three days later): −0.037 | Fold (luciferase activity relative to DMSO controls) [1]: 0.975 fold

CC1=C(CC/C(C)=C/CCC2=CC[C@H](C3=CC(=O)O[C@H]3O)O[C@H]2O)C(C)(C)CCC1 [Manoalide]
Log2 (fold) (luciferase activity, log2 of the fold difference relative to DMSO controls) [2]: −0.490 | Fold (luciferase activity, fold difference relative to DMSO controls) [3]: 0.712

CC[C@H](C)C(=O)O[C@H]1C[C@@H](C)C=C2C=C[C@H](C)[C@H](CC[C@@H]3C[C@@H](O)CC(=O)O3)[C@H]21 [Mevinolin (lovastatin)]
Log2 (fold) (luciferase activity, log2 of the fold difference relative to DMSO controls) [2]: −0.512 | Fold (luciferase activity, fold difference relative to DMSO controls) [3]: 0.701

Cc1[nH]c(=O)c(C#N)cc1-c1ccncc1 [Milrinone]
Log2 (fold) (luciferase activity, log2 of the fold difference relative to DMSO controls) [2]: −0.615 | Fold (luciferase activity, fold difference relative to DMSO controls) [3]: 0.653
